Measurements reported in patent US6258785A, “Crystalline 9-E-(O-methyl)oxime of 11, 12-dideoxy-3-de(2,6-dideoxy-3-C-methyl-3-O-methyl-α-L-ribohexopyrano syloxy)-6-O-methyl-12,11-(iminocarbonyl-(2-(3-(4-(3-pyridinyl)1H-imadazol-1 -yl)propyl)hydrazono))-3-oxoerythromycin” (Pfizer Inc., priority 1999, dated 2001).
Counter-ions that a name gives are not always drawn.

Columns and labels:
[1] = Hygroscopicity of crystalline form; format: physicochemical; details: crystalline hemihydrate form of the free base
[2] = format: physicochemical; details: phosphate buffer, pH 6.5
Method: Amorphous 9-E-(O-methyl)oxime of 11,12-dideoxy-3-de(2,6-dideoxy-3-C-methyl-3-O-methyl-α-L-ribohexopyranosyloxy)-6-O-methyl-12,11-(iminocarbonyl-(2-(3-(4-(3-pyridinyl)-1H-imidazol-1-yl)propyl)hydrazono))-3-oxoerythromycin (130 g) was suspended in 3L of isopropyl ether containing 3% ethanol. The suspension was heated to 60° C. overnight and stirring was continued at room temperature (about 20-25° C.) for an additional 3 days. The resulting solid was collected by filtration to give 81 g of the title compound; mp 177° C. […] The crystals were characterized by the powder X-ray diffraction pattern noted below.
To a solution of amorphous 9-E-(O-methyl)oxime of 11,12-dideoxy-3-de(2,6-dideoxy-3-C-methyl-3-O-methyl-α-L-ribohexopyranosyloxy)-6-O-methyl-12,11-(iminocarbonyl-(2-(3-(4-(3-pyridinyl)-1H-imidazol-1-yl)propyl)hydrazono))-3-oxoerythromycin (200 mg) in 3 mL of CH2 Cl2 was added 1.19 mL of 2M solution of methanesulfonic acid in CH2 Cl2. The solution was stirred at room temperature (about 20-25° C.) for 15 minutes, and the solvent was evaporated. The residue was dissolved in 2 mL of ethyl acetate, and to this solution was added 1 mL of isopropyl ether. The solution was concentrated to approximately 0.5 mL and was left standing at room temperature (about 20-25° C.). The resulting crystals were collected by filtration to 175 mg of the title compound; mp: 193-194° C. […]

SMILES	hygroscopicity [1]	water solubility of the resulting crystals [2]
CC[C@H]1OC(=O)[C@H](C)C(=O)[C@H](C)[C@@H](O[C@@H]2O[C@H](C)C[C@H](N(C)C)[C@H]2O)[C@](C)(OC)C[C@@H](C)/C(=N\OC)[C@H](C)[C@H]2N(NCCCn3cnc(-c4cccnc4)c3)C(=O)N[C@]12C [Example 1, 9-E-(O-Methyl)oxime of 11,12-Dideoxy-3-de(2. 6-dideoxy-3-C-methyl-3-O-methyl-α-L-ribohexopyranosyloxy)-6-O-methyl-12,11-(iminocarbonyl-(2-(3-(4-(3-pyridinyl)-1H-imidazol-1-yl)propyl)hydrazono))-3-oxoerythromycin hemihydrate]	non-hygroscopic	greater than 11 mg/ml
CC[C@H]1OC(=O)[C@H](C)C(=O)[C@H](C)[C@@H](O[C@@H]2O[C@H](C)C[C@H](N(C)C)[C@H]2O)[C@](C)(OC)C[C@@H](C)/C(=N\OC)[C@H](C)[C@H]2N(NCCCn3cnc(-c4cccnc4)c3)C(=O)N[C@]12C [Example 2, Methanesulfonic Acid Salt of 9-E-(O-Methyl)oxime of 11,12-dideoxy-3-de(2,6-dideoxy-3-C-methyl-3-O-methyl-α-L-ribohexopyranosyloxy)-6-O-methyl-12,11-(iminocarboxyl-(2-(3-(4-(3-pyridinyl)-1H-imidazol-1-yl)-propyl)hydrazo))-3-oxoerythromycin]		24 mg/mL
